Source: patent publication US20060079493A1, “Methods for treating genetically- defined proliferative disorders with hsp90 inhibitors” (priority 2001, published 2006)
Read-outs that look alike come from different tables or passages of the source.

Columns and labels:
[1] = test system: K562 cells; experiment: MTS assay, cytotoxicity (growth inhibition) on K562; format: cell-based, human; conditions: for Metabolic Activity K562: MTS, 3-6 days, DMSO control = 100%
Method: The cell line is widely available, e.g., from American Type Culture Collection (“ATCC”; Manassas, Va., USA; cat# CCL-243) and can be propogated in a variety of media, e.g., ATCC's Iscove's modified Dulbecco's medium with 4 mM L-glutamine adjusted to contain 1.5 g/L sodium bicarbonate, 90%; fetal bovine serum, 10%; 37C.
(§1) To K562 cells (suspension grown in DMEM media supplemented w/10% Fetal Bovine Serum (FBS) and 1 mM HEPES; subcultured biweekly at 100K cells/ml) in a 96 well plate (0.1 ml medium; 2000 cells per well) were added various concentrations of 17-AAG (CF7) and the effects measured over a period of 3-6 days using an MTS assay protocol similar to that offered by Promega Corp (Madison, Wis., US; cat# G5421).
(§2) The MTS assay is a colorimetric assay for determining the number of viable cells in proliferation, cytotoxicity or chemosensitivity assays. The CellTiter 96® AQueous Assay is composed of solutions of tetrazolium compound (3-(4,5-dimethylthiazol-2-yl)-5-(3-carboxymethoxyphenyl)-2-(4-sulfophenyl)-2H-tetrazolium, inner salt; MTS) and an electron coupling reagent (phenazine methosulfate) PMS. MTS is bioreduced by cells into a formazan that is soluble in tissue culture medium. Barltrop et al. (1991) Bioorg. & Med. Chem. Lett. 1, 611. The absorbance of the formazan at 490 nm can be measured directly from 96 well assay plates without additional processing. Cory et al. (1991) Cancer Commun. 3, 207; Riss, T. L. and Moravec, R. A. (1992) Mol. Biol. Cell 3 (Suppl.), 184a. The conversion of MTS into the aqueous soluble formazan is accomplished by dehydrogenase enzymes found in metabolically active cells. The quantity of formazan product as measured by the amount of 490 nm absorbance is directly proportional to the number of living cells in culture.
(§3) Using the MTS assay, cytotoxicity (defined as “growth inhibition” and not necessarily versus renal proximal tubular […] cells (normal cells) was determined as shown in the following Tables. “Sem” refers to standard error of the mean, which is calculated as the standard deviation divided by the square root of the sample size; the numbers reflect triplicate replicates. Dilutions of the compounds were prepared in DMSO and straight DMSO was used as a control corresponding to 100% metabolic activity.

[2] = test system: RPTEC; experiment: MTS assay, cytotoxicity (growth inhibition) on normal cells RPTEC; format: cell-based; conditions: for Metabolic Activity RPTEC: MTS, 3-6 days, DMSO control = 100%; for IC50: read-out: RPTEC IC50
Method: as §1, §2, §3

[3] = test system: bcr-abl expressing leukemia cell lines; conditions: average of six cell lines; read-out: IC50 averaged in six bcr-abl expressing leukemia cell lines; cited from earlier work
[4] = test system: bcr-abl-negative leukemia lines; conditions: mean of four cell lines; read-out: mean IC50 in a panel of four bcr-abl-negative leukemia lines; cited from earlier work
[5] = Homo sapiens, K562, read-out: K562 IC50
[6] = separate study, compared with compound 237

C=CCNC1=C2C[C@@H](C)C[C@H](OC)[C@H](O)[C@@H](C)/C=C(\C)[C@H](OC(N)=O)[C@@H](OC)/C=C\C=C(/C)C(=O)NC(=CC1=O)C2=O [CF7, 17-allylamino-17-demethoxygeldanamycin]
Metabolic Activity K562 ([1]; 0.0003 uM): 88.00%
Metabolic Activity K562 ([1]; 0.0010 uM): 83.81%
Metabolic Activity K562 ([1]; 0.0030 uM): 83.00%
Metabolic Activity K562 ([1]; 0.0100 uM): 85.94%
Metabolic Activity K562 ([1]; 0.0300 uM): 80.12%
Metabolic Activity K562 ([1]; 0.1000 uM): 44.06%
Metabolic Activity K562 ([1]; 0.3000 uM): 14.40%
Metabolic Activity K562 ([1]; 1.0000 uM): 9.51%
Metabolic Activity K562 ([1]; 3.0000 uM): 8.12%
Metabolic Activity K562 ([1]; 10.0000 uM): 7.89%
IC50 ([1]; bcr-abl fusion protein cancer line, MTS assay, read-out: K562 IC50): 70 nM
Metabolic Activity RPTEC ([2]; 0.0003 uM): 98.69%
Metabolic Activity RPTEC ([2]; 0.0010 uM): 92.26%
Metabolic Activity RPTEC ([2]; 0.0030 uM): 92.73%
Metabolic Activity RPTEC ([2]; 0.0100 uM): 91.81%
Metabolic Activity RPTEC ([2]; 0.0300 uM): 86.40%
Metabolic Activity RPTEC ([2]; 0.1000 uM): 86.46%
Metabolic Activity RPTEC ([2]; 0.3000 uM): 58.03%
Metabolic Activity RPTEC ([2]; 1.0000 uM): 34.01%
Metabolic Activity RPTEC ([2]; 3.0000 uM): 22.01%
Metabolic Activity RPTEC ([2]; 10.0000 uM): 20.10%
IC50 ([2]; normal cells, MTS assay): 400 nM

COC1/C=C\C=C(/C)C(=O)NC2=CC(=O)C(NCCCN(C)CCCNC3=C4CC(C)CC(OC)C(O)C(C)/C=C(\C)C(OC(N)=O)C(OC)/C=C\C=C(/C)C(=O)NC(=CC3=O)C4=O)=C(CC(C)CC(OC)C(O)C(C)/C=C(\C)C1OC(N)=O)C2=O (stereo not shown) [Compound 208]
IC50 [1, 5]: 50 nM
IC50 ([2]; Homo sapiens, RPTEC): 1000 nM

COC1/C=C\C=C(/C)C(=O)NC2=CC(=O)C(NCCCNCCCNC3=C4CC(C)CC(OC)C(O)C(C)/C=C(\C)C(OC(N)=O)C(OC)/C=C\C=C(/C)C(=O)NC(=CC3=O)C4=O)=C(CC(C)CC(OC)C(O)C(C)/C=C(\C)C1OC(N)=O)C2=O (stereo not shown) [Compound 237]
IC50 [1, 5]: 100 nM
IC50 ([2]; Homo sapiens, RPTEC): 4000 nM

CCCNC/C=C/CNC1=C2CC(C)CC(OC)C(O)C(C)/C=C(\C)C(OC(N)=O)C(OC)/C=C\C=C(/C)C(=O)NC(=CC1=O)C2=O (stereo not shown) [Compound 481]
IC50 [1, 5]: 400 nM
IC50 ([2]; Homo sapiens, RPTEC): 4000 nM

COC1/C=C\C=C(/C)C(=O)NC2=CC(=O)C(NCCN(C)CCNC3=C4CC(C)CC(OC)C(O)C(C)/C=C(\C)C(OC(N)=O)C(OC)/C=C\C=C(/C)C(=O)NC(=CC3=O)C4=O)=C(CC(C)CC(OC)C(O)C(C)/C=C(\C)C1OC(N)=O)C2=O (stereo not shown) [Compound 483]
IC50 ([1]; Homo sapiens, K562, bcr-abl fusion protein cancer line, MTS assay, read-out: K562 IC50): 70 nM
IC50 ([2]; Homo sapiens, RPTEC): 1000 nM

CO[C@H]1[C@@H](OC)C[C@H](C)[C@@H](OC)C2=CC(=O)C=C(NC(=O)/C(C)=C/C=C\[C@H](OC)[C@@H](OC(N)=O)/C(C)=C/[C@@H]1C)C2=O [herbimycin A]
IC50 [3]: 29.3 nM
IC50 [4]: 399 nM

C[C@@H]1C[C@H]2O[C@@H]2/C=C\C=C\C(=O)Cc2c(Cl)c(O)cc(O)c2C(=O)O1 [radicicol]
effect on K562 (separate study) [1, 6]: approximating those obtained for compound 237
effect on RPTEC (separate study) [2, 6]: approximating those obtained for compound 237
